`CCOC(=O)C(C)Oc1ccc(Oc2nc3ccc(Cl)cc3o2)cc1` (stereo not given) gave a melting point of 90 °C.

For `N#Cc1sc2nc(-c3ccccc3)cc(C(F)(F)F)c2c1N`, the melting point was 236 to 238 °C.

Work on `CC(C)C[C@H](NC(=O)CN)C(=O)O` yielded a melting point of 233 to 235 °C.

`C[C@@]12CCC[C@@H]1C1=C(CC2)[C@@]2(C)CCC(=O)CC2CC1` (stereo not given in full) showed a melting point of 77 to 78 °C.

With `CCC(=C(CC)c1ccc(OC)cc1)c1ccc(OC)cc1` the melting point was 124 °C.

`CN1CCC(CN2c3ccccc3Sc3ccccc32)C1` (stereo not given) gave a melting point of 87 °C.

Compound `COc1ccc(F)c(C=O)c1OC` has a melting point of 46 °C.

Work on `COc1ccc(C(C)=O)cc1Cl` yielded a melting point of 75 °C.

In the case of `CS(=O)(=O)CC#N`, the melting point is reported as 84 °C.

With `O=[N+]([O-])c1cccc(Cl)c1O` the melting point was 70 °C.

For `Cc1nnc2n1-c1sc(Br)cc1C(c1ccccc1Cl)=NC2`, the melting point was 213 °C.

Work on `NC(=O)c1sc2nnccc2c1N` yielded a melting point of 310 to 320 °C.

`NCP(=O)(O)O` showed a melting point of 300 °C.

In the case of `C=CC(=O)NC(C)(C)CS(=O)(=O)O`, the melting point is reported as 195 °C.

In the case of `Cc1ccc(I)cc1N`, the melting point is reported as 47.5 °C.

With `Nc1nc(=O)[nH]cc1F` the melting point was 296 °C.

Work on `CCS(=O)CCSP(=O)(OC)OC` (stereo not given) yielded a melting point of -49 °C.

`CC=Cc1ccc2c(c1)OCO2` showed a melting point of 8.2 °C.

For `O=C(O)c1ccccc1-n1ccnc1`, the melting point was 198 to 200 °C.

In the case of `C=C1C(=O)C23C4CC5C(C)(C)CCC(OC(C)=O)C5(C(=O)O4)C2C(OC(C)=O)CC1C3O` (stereo not given), the melting point is reported as 238 °C.

`COc1ccc(C(=NCc2ccccc2)c2ccc(OC)cc2)cc1` gave a melting point of 90 °C.

For `Cc1[nH]c2ccc(C(=O)O)cc2c1C`, the melting point was 239 to 242 °C.

Compound `Cc1cc(Br)c(Br)cc1C` has a melting point of 86 °C.

`NC(=O)c1ccccc1CO` showed a melting point of 150 °C.

`CC(C)(C)c1cc([N+](=O)[O-])c2cc(C(C)(C)C)cc([N+](=O)[O-])c2c1` gave a melting point of 198 to 200 °C.

`CC(=O)ON(/C=C1\C(=O)C2(C)CCC1C2(C)C)c1ccccc1` (stereo not given) showed a melting point of 162 to 164 °C.

Compound `OC1CCC(O)C1` (stereo not given) has a melting point of 40 °C.

Work on `CCOC=C(C#N)S(=O)(=O)c1ccccc1` yielded a melting point of 74 °C.

Work on `CC12CCC(C(C(Br)c3ccccc3)OC1=O)C2(C)C` (stereo not given) yielded a melting point of 141 °C.

With `CC(=O)Nc1cc(CCNC(=O)c2ccccc2)cc(NC(C)=O)c1CCNC(=O)c1ccccc1` the melting point was 268 °C.

Work on `C=Nc1cnn(-c2ncnc3c2cnn3C)c1C=COCC` yielded a melting point of 155 °C.

`CCC(=O)NC` gave a melting point of -30.9 °C.

Compound `Clc1cc2oc3c(Cl)c(Cl)ccc3c2cc1Cl` has a melting point of 195 °C.

`Cc1ccc(N)c(Cl)c1` showed a melting point of 7 °C.

With `c1ccc(-c2c[nH]cn2)cc1` the melting point was 144 °C.

Work on `CC1(C)CC(C(=O)Oc2ccc([N+](=O)[O-])cc2)C(C)(C)N1O` (stereo not given) yielded a melting point of 77 to 80 °C.

In the case of `O=C=Nc1csc(-c2ccc(C(F)(F)F)cc2)n1`, the melting point is reported as 51 °C.

In the case of `O=[N+]([O-])c1cccc(-n2cccc2)c1`, the melting point is reported as 72 to 74 °C.

Work on `Cc1ccc(Br)c(C)c1` yielded a melting point of -17 °C.

Work on `Cn1c(=O)c(C2=NNC(=O)C2=NNc2cccc(Br)c2)c(O)c2ccccc21` yielded a melting point of 240 °C.

With `O=c1[nH]n(C2C=CC3C4C=CC(C4)C32)c(=O)n1-c1ccccc1` (stereo not given) the melting point was 155 °C.

With `O=C(O)c1cccc2c1CCCC2` the melting point was 147 to 150 °C.

In the case of `CC(=O)C=CC1C(C)=CCC(C)C1(C)C` (stereo not given), the melting point is reported as < 25 °C.

In the case of `O=C(Cl)c1cnn2ccccc12`, the melting point is reported as 116 to 118 °C.

With `O=C(O)C=Cc1c(Cl)cccc1Cl` the melting point was 192 to 196 °C.

`Cc1cc(C)cc(C(=O)N(NC(=O)c2ccccc2)C(C)(C)C)c1` gave a melting point of 206 °C.

`O=C(CBr)c1ccc(F)cc1` showed a melting point of 47 °C.

Work on `CC(=O)Nc1cc(N)ccc1C` yielded a melting point of 141 to 142 °C.

In the case of `C=C1C(C)C2C(Cc3ccccc3)NC(=O)C23OC(=O)C=CC(=O)CCCC(C)CC=CC3C1O` (stereo not given), the melting point is reported as 193 to 195 °C.

Compound `Cn1ccc(S(=O)(=O)Cl)n1` has a melting point of 36 to 39 °C.

For `CC1=NCCS1`, the melting point was -101 °C.

Compound `Sc1nnc(-c2cccc3ccccc23)n1Cc1ccco1` has a melting point of 177 to 178 °C.

For `Cc1oc(S(=O)(=O)N2CCOCC2)cc1C(=O)O`, the melting point was 184 to 186 °C.

For `Brc1ccc2nccn2c1`, the melting point was 76 to 78 °C.

`CCOC(=O)Nc1ccc(NCc2ccc(F)cc2)nc1N` showed a melting point of 114 °C.

In the case of `Cc1cccc(P(c2cccc(C)c2)c2cccc(C)c2)c1`, the melting point is reported as 100 to 103 °C.

In the case of `COC(=O)C(C)Oc1ccc(Oc2ncc(C(F)(F)F)cc2Cl)cc1` (stereo not given), the melting point is reported as 56 °C.

Compound `CCOC(=O)C1Cc2cc3c(cc2NC1=O)NC(=O)C(C(=O)OCC)C3` (stereo not given) has a melting point of 242 °C.

Work on `O=c1cc(-c2ccccc2)oc2ccc(Cl)cc12` yielded a melting point of 183 to 187 °C.

With `O=C(O)C=Cc1ccc(N2CCCC2)c([N+](=O)[O-])c1` the melting point was 243 to 245 °C.

Compound `CC(Cl)C(=O)Cl` (stereo not given) has a melting point of -71 °C.

Work on `CC(=O)Oc1cc(-c2ccccc2)cc2ccccc12` yielded a melting point of 60 °C.

In the case of `COC(=O)c1ccc2cc(Br)ccc2c1`, the melting point is reported as 123 to 126 °C.

Work on `CC(=O)OC1CCC2(C)C(CC(=O)C3C2CCC2(C)C(OC(=O)c4ccccc4)CCC32)C1` (stereo not given) yielded a melting point of 175 °C.

Work on `Cc1cc(-n2c(=O)[nH]c(=O)n(C)c2=O)ccc1Oc1ccc(SC(F)(F)F)cc1` yielded a melting point of 194 °C.

Work on `COC(=O)c1cccc(OC)c1OC` yielded a melting point of 46 to 49 °C.

Compound `CN(N)C(=O)c1ccccc1N` has a melting point of 69 to 71 °C.

`CCCCCCCCCCCCN` gave a melting point of 28.3 °C.

With `N=c1sc(C(=O)c2cccs2)nn1-c1cccc(C(F)(F)F)c1` the melting point was 185 °C.

`O=S1(=O)CCc2ccccc2CC1` showed a melting point of 153 to 155 °C.

`Cn1c(=O)c(C2=NNC(=O)C2=CNc2cccc3ccccc23)c(O)c2ccccc21` showed a melting point of 292 °C.

In the case of `CC(=O)Nc1c(C)ccc2c1C(=O)c1ccccc1C2=O`, the melting point is reported as 133 °C.

With `O=C(O)C1C(C(=O)O)C2(Cl)C(Cl)=C(Cl)C1(Cl)C2(Cl)Cl` (stereo not given) the melting point was 209 °C.

Work on `COc1cccc2cccnc12` yielded a melting point of 49.5 °C.

With `S=c1nnc(-c2ccccc2)c(Nc2ccc(Cl)cc2)[nH]1` the melting point was 314 °C.

Work on `Cc1ccc(N2CCCC2=O)cc1` yielded a melting point of 86 to 88 °C.

Work on `O=Cc1ccc(-c2ccccc2[N+](=O)[O-])o1` yielded a melting point of 96 to 98 °C.

In the case of `C#CCCCCCCCCCCCC`, the melting point is reported as 0 °C.

With `CC12CCC(=O)C=C1CCC1C3CCC(O)(C(=O)CO)C3(C)CC(O)C12F` (stereo not given) the melting point was 261 °C.

Compound `Clc1cccc2c(Cl)cccc12` has a melting point of 107 °C.

Work on `O=C(c1ccc(Br)cc1)[C@H]1CCCC[C@H]1C(=O)O` (relative stereo) yielded a melting point of 171 to 175 °C.

Compound `CN(C)C(=S)Oc1ccc2ccccc2c1` has a melting point of 90 °C.

With `CSc1nn2c(=O)c(C)nnc2s1` the melting point was 196 °C.

With `CNc1ccc(C(=O)O)cc1` the melting point was 160 to 163 °C.

`CCOC(=O)N1CCNCC1` gave a melting point of 120 °C.

`C[C@H](CC=C(c1ccccc1)c1ccccc1)[C@H]1CC[C@H]2[C@@H]3C(O)CC4CC(O)CC[C@]4(C)[C@H]3CC(O)[C@]12C` (stereo not given in full) gave a melting point of 220 °C.

`C=CCc1ccccc1` gave a melting point of -40 °C.

Compound `Cc1ccc(C(=O)C2=NN(c3ccccc3)C3C(=O)N(c4cccc([N+](=O)[O-])c4)C(=O)C23)cc1` (stereo not given) has a melting point of 176 °C.

In the case of `CC[Si](Cl)(CC)CC`, the melting point is reported as -75 °C.

`O=C(CCCCl)c1ccc(F)cc1` gave a melting point of 6 °C.

Reference: a melting point compilation (Tetko et al.)
